Measured values taken from patent publication US6399641B1, “2H-tetrazole-amide compounds with therapeutic activity as metabotropic glutamate receptor agonists” (Hoffmann-la Roche Inc., priority 2000, dated 2002).

Assays:
rat mGlu1a receptor = biological target: T1, rat mGlu1a receptor (Rattus norvegicus, UniProt P23385); test: [Ca2+]i measurement (FLIPR) on mGlu1a transfected EBNA cells; type: cell-based; conditions: agonist activity, rat mGlu1a transiently transfected EBNA cells, Fluo-3 AM
T1 construct: expressed in transfected cells; host or cells: EBNA cells (transient transfection)
Procedure: cDNA encoding for rat mGlu1a receptor obtained from Prof. S. Nakanishi (Kyoto, Japan) was transiently transfected into EBNA cells using a procedure described by Schlaeger & Christensen, 1998. [Ca^2+]i measurement were performed on mGlu1a transfected EBNA cells after incubation of the cells with Fluo-3 AM (0.5 μM final concentration) for 1 hour at 37° C. followed by 4 washes with assay buffer (DMEM supplemented with Hank's salt and 20 mM HEPES). [Ca^2+]i measurement were done using a fluorometric imaging plate reader (FLIPR, Molecular Devices Corporation, La Jolla, Calif., USA). When compounds were evaluated as antagonists they were tested against 10 μM glutamate as agonist.
The inhibition (antagonists) or activation (agonists) curves were fitted with a four parameter logistic equation giving EC50, IC50 and Hill coefficient using the iterative non linear curve fitting software Origin (Microcal Software Inc., Northampton, Mass., USA). E.-J. Schlaeger and K. Christensen Transient gene expression in mammalian cells grown in serum-free suspension culture. Cytotechnology, 30:71-83, 1999.

T1 sequence (P23385 19-1199): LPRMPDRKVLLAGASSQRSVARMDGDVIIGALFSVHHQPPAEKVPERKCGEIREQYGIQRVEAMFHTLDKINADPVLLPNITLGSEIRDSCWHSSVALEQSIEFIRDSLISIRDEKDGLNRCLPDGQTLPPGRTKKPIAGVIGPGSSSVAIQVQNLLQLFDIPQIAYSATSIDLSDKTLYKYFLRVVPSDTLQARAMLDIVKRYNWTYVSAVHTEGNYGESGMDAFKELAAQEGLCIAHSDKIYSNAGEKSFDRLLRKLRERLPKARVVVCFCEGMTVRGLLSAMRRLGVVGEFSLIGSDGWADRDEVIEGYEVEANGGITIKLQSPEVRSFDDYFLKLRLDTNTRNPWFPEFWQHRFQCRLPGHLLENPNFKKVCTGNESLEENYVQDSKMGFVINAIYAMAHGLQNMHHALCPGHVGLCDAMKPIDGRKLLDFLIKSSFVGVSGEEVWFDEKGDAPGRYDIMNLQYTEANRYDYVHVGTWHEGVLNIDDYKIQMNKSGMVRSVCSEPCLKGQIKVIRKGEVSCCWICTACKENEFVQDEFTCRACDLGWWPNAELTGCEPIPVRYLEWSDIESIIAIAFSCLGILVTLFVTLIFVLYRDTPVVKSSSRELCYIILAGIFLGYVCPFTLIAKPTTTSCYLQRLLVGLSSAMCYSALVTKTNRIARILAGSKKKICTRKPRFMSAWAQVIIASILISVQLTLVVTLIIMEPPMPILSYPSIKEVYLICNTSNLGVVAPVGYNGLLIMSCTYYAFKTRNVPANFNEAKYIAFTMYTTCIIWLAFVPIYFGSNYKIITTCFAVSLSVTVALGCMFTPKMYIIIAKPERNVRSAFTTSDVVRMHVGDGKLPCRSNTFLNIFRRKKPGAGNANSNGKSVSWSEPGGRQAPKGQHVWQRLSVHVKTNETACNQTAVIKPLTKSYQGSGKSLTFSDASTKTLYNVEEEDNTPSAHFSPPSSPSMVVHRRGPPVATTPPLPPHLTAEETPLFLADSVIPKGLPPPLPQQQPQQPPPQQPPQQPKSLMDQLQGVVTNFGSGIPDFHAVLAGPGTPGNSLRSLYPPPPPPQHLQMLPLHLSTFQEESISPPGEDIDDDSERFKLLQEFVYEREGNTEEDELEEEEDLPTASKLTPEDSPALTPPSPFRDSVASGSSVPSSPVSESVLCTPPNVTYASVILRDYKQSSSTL

Row | Compound | EC50 (rat mGlu1a receptor) [nM] | melting point
1 | 9H-Thioxanthene-9-carboxylic acid (2-ethyl-2H-tetrazol-5-yl)-amide [Example 25] | 1390 | 
2 | CCn1nnc(NC(=O)C2c3ccccc3COc3ccccc32)n1 (racemic) [Example 24, (RS)-6,11 -Dihydro-dibenzo[b,e]oxepine-11-carboxylic acid (2-ethyl-2H-tetrazol-5-yl)-amide] | 470 | 158 to 159 °C
3 | CCn1nnc(NC(=O)C2c3ccccc3Oc3cccc(OC)c32)n1 (racemic) [Example 26, (RS)-1-Methoxy-9H-xanthene-9-carboxylic acid (2-ethyl-2H-tetrazol-5-yl)-amide] |  | 259 to 260 °C (dec.)
4 | CCn1nnc(NC(=O)C2c3ccccc3Oc3ccc(OC)cc32)n1 (racemic) [Example 27, (RS)-2-Methoxy-9H-xanthene-9-carboxylic acid (2-ethyl-2H-tetrazol-5-yl)-amide] | 190 | 208 to 210 °C (dec.)
5 | CCn1nnc(NC(=O)C2c3ccccc3Oc3c(OC)cccc32)n1 (racemic) [Example 28, (RS)-4-Methoxy-9H-xanthene-9-carboxylic acid (2-ethyl-2H-tetrazol-5-yl)-amide] |  | 239 to 240 °C (dec.)
6 | Cn1nnc(NC(=O)C(c2ccccc2)c2ccccc2)n1 [Example 1, N-(2-Methyl-2H-tetrazol-5-yl)-2,2-diphenyl-acetamide] | 220 | 218 °C (dec.)
7 | Cn1nnc(NC(=O)C2c3ccccc3Oc3ccccc32)n1 [Example 2, 9-Xanthene-9-carboxylic acid (2-methyl-2H-tetrazol-5-yl)-amide] | 180 | 247 °C (dec.)
8 | CCn1nnc(NC(=O)C(c2ccccc2)c2ccccc2)n1 [Example 3, N-(2-Ethyl-2H-tetrazol-5-yl)-2,2-diphenyl-acetamide] |  | 169 to 170 °C
9 | CCn1nnc(NC(=O)C2c3ccccc3Oc3ccccc32)n1 [Example 4, 9H-Xanthene-9-carboxylic acid (2-ethyl-2H-tetrazol-5-yl)-amide] |  | 228 °C (dec.)
10 | O=C(Nc1nnn(CC2CC2)n1)C(c1ccccc1)c1ccccc1 [Example 5, N-(2-Cyclopropylmethyl-2H-tetrazol-5-yl)-2,2-diphenyl-acetamide] |  | 147 to 148 °C
11 | O=C(Nc1nnn(CC2CC2)n1)C1c2ccccc2Oc2ccccc21 [Example 6, 9H-Xanthene-9-carboxylic acid (2-cyclopropylmethyl-2H-tetrazol-5-yl)-amide] |  | 222 to 224 °C
12 | CC(C)n1nnc(NC(=O)C(c2ccccc2)c2ccccc2)n1 [Example 7, N-(2-Isopropyl-2H-tetrazol-5-yl)-2,2-diphenyl-acetamide] | 100 | 175 to 177 °C
13 | CC(C)n1nnc(NC(=O)C2c3ccccc3Oc3ccccc32)n1 [Example 8, 9H-Xanthene-9-carboxylic acid (2-isopropyl-2H-tetrazol-5-yl)-amide] | 45 | 
14 | O=C(Nc1nnn(CC(F)(F)F)n1)C(c1ccccc1)c1ccccc1 [Example 9, 2,2-Diphenyl-N-[2-(2,2,2-trifluoro-ethyl)-2H-tetrazol-5-yl]-acetamide] | 2000 | 146 to 148 °C
15 | O=C(Nc1nnn(CC(F)(F)F)n1)C1c2ccccc2Oc2ccccc21 [Example 10, 9H-Xanthene-9-carboxylic acid [2-(2,2,2-trifluoro-ethyl)-2H-tetrazol-5-yl]-amide] | 170 | 209 to 210 °C
16 | CCCn1nnc(NC(=O)C(c2ccccc2)c2ccccc2)n1 [Example 11, 2,2-Diphenyl-N-(2-propyl-2H-tetrazol-5-yl)-acetamide] |  | 124 to 125 °C
17 | CCCn1nnc(NC(=O)C2c3ccccc3Oc3ccccc32)n1 [Example 12, 9H-Xanthene-9-carboxylic acid (2-propyl-2H-tetrazol-5-yl)-amide] |  | 208 to 209 °C
18 | COCn1nnc(NC(=O)C(c2ccccc2)c2ccccc2)n1 [Example 13, N-(2-Methoxymethyl-2H-tetrazol-5-yl)-2,2-diphenyl-acetamide] |  | 127 to 128 °C
19 | COCn1nnc(NC(=O)C2c3ccccc3Oc3ccccc32)n1 [Example 14, 9H-Xanthene-9-carboxylic acid (2-methoxymethyl-2H-tetrazol-5-yl)-amide] |  | 221 to 222 °C
20 | CC(C)(C)n1nnc(NC(=O)C(c2ccccc2)c2ccccc2)n1 [Example 15, N-(2-tert-Butyl-2H-tetrazol-5-yl)-2,2-diphenyl-acetamide] |  | 191 to 192 °C
21 | CC(C)(C)n1nnc(NC(=O)C2c3ccccc3Oc3ccccc32)n1 [Example 16, 9H-Xanthene-9-carboxylic acid (2-tert-butyl-2H-tetrazol-5-yl)-amide] |  | 230 to 231 °C
22 | O=C(Nc1nnn(C(F)F)n1)C(c1ccccc1)c1ccccc1 [Example 17, N-(2-Difluoromethyl-2H-tetrazol-5-yl)-2,2-diphenyl-acetamide] |  | 143 to 145 °C
23 | O=C(Nc1nnn(C(F)F)n1)C1c2ccccc2Oc2ccccc21 [Example 18, 9H-Xanthene-9-carboxylic acid (2-difluoromethyl-2H-tetrazol-5-yl)-amide] |  | 168 to 169 °C
24 | N#CCn1nnc(NC(=O)C(c2ccccc2)c2ccccc2)n1 [Example 19, N-(2-Cyanomethyl-2H-tetrazol-5-yl)-2,2-diphenyl-acetamide] |  | 173 to 174 °C
25 | N#CCn1nnc(NC(=O)C2c3ccccc3Oc3ccccc32)n1 [Example 20, 9H-Xanthene-9-carboxylic acid (2-cyanomethyl-2H-tetrazol-5-yl)-amide] |  | 204 to 205 °C
26 | COC(=O)Cn1nnc(NC(=O)C(c2ccccc2)c2ccccc2)n1 [Example 21, (5-Diphenylacetylamino-tetrazol-2-yl)-acetic acid methyl ester] |  | 168 to 169 °C
27 | COC(=O)Cn1nnc(NC(=O)C2c3ccccc3Oc3ccccc32)n1 [Example 22, {5-[(9H-Xanthene-9-carbonyl)-amino]-tetrazol-2-yl}-acetic acid methyl ester] |  | 243 to 244 °C
28 | CCn1nnc(NC(=O)C2c3ccccc3Cc3ccccc32)n1 [Example 23, 9,10-Dihydro-anthracene-9-carboxylic acid (2-ethyl-2H-tetrazol-5-yl)-amide] |  | 206 to 207 °C
